Consider five molecules from US20120264827A1, “SULFANYLAMIDE DERIVATIVES, USES THEREOF AND COMPOSITIONS COMPRISING THEM” (YISSUM RESEARCH DEVELOPMENT COMPANY OF THE HEBREW …, priority 2009, published 2012).

By ED50 is commonly meant the midpoint of the dose-response relation. Usually melting point stands for the temperature, or range, at which the solid turns liquid.

Like-named read-outs stand apart in the source and are kept apart here.

Data set [1] concerns maximal electroshock seizure (MES). Put plainly: Maximal electroshock seizure test (MES), mice, intraperitoneal.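 Also: adult male CF no. 1 albino mice of 18–25 g, given compound intraperitoneally as a 0.5% methylcellulose suspension.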 As to conditions: ip. The format is in vivo. In general terms: Protection in the maximal electroshock model is a classic sign of anticonvulsant action.
The subject of data set [2] is subcutaneous metrazol (pentylenetetrazol) seizure. Put plainly: Subcutaneous metrazol seizure threshold test (scMet), mice, intraperitoneal.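 Also: adult male CF no. 1 albino mice weighing 18-25 g, dosed intraperitoneally with compounds suspended in 0.5% methylcellulose.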 The note with it: ip. The data set is classed as in vivo.
Data set [3] relates to maximal electroshock seizure (MES). As to conditions: male, Sprague-Dawley, rat, in vivo, po.
Data set [4] concerns subcutaneous metrazol (pentylenetetrazol) seizure. The note with it: for PI, protective index (PI = TD50/ED50) in the scMet test: male, Sprague-Dawley, rat, in vivo, po.
Experimental: (§1) The evaluation of the anticonvulsant activity in the maximal electroshock seizure test (MES) and subcutaneous metrazol seizure threshold test (scMet) and the determination of neurotoxicity in the rotorod test, positional sense test, and others were performed according to the protocols described in White, H. S., Woodhead J. H., Wilcox K. S., Stables J. P., Kupferberg H. J., Wolf H. H., Discovery and Preclinical Development of Antiepileptic Drugs; 5th ed.; Lippincott Williams &Wilkins: New york, 2002; 36-48.
(§2) The tested compounds were suspended in 0.5% methylcellulose and administered (a) intraperitioneally (ip) to adult male CF no. 1 albino mice (18-25 g) in volume of 0.01 mL/g body weight and (b) orally to adult male Sprague-Dawley albino rats (100-150 g) in volume of 0.04 mL per 10 g of body weight. The pentylenetetrazol solution at convulsing dose was prepared by sufficient dissolution of pentylenetetrazol in 0.9% saline to make 0.85% solution for administration to mice and a 2.82% solution for administration to rats.
(§3) The TD50 was determined by varying the dose of the tested compounds until four points were established between the dose level that induced no signs of minimal motor impairment in any of the animals and the dose at which all the animals were considered impaired. […] The PIs were calculated by dividing the TD50 by the ED50.
A further data set is described as follows: in vivo. As to conditions: male, Sprague-Dawley, rat, po.
In data set [5] the test system is subcutaneous metrazol (pentylenetetrazol) seizure. Put plainly: animal or person. As to conditions: Rattus norvegicus, po, read-out: scMet ED50.
Experimental: as §1, §2, §3
Data set [6] relates to maximal electroshock seizure (MES). Put plainly: Maximal electroshock seizure test (MES), rats, oral.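 As to all read-outs here: adult male Sprague-Dawley rats received test compounds by mouth as a suspension in 0.5% methylcellulose.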 The note with it: for responders at 30 mg/kg / ED50: Rattus norvegicus, po; for responders at 30 mg/kg: read-out: Anti-MES activity (number of animals protected/number of animals tested); for ED50: read-out: MES ED50, rats dosed orally; for ED50 / MES ED50: interval in parentheses = 95% confidence interval; for MES ED50: rats dosed orally.

Setting [7] is: 30 mg/kg, 0.5 h after administration.
Setting [8] is: 30 mg/kg, 4 h after administration.
The mark [9] stands for this setting: 100 mg/kg, 0.5 h after administration.
Where [10] appears, read: 100 mg/kg, 4 h after administration.
Setting [11] is: 300 mg/kg, 0.5 h after administration.
Setting [12] is: 300 mg/kg, 4 h after administration.

Experimental for in vivo: The tested compounds were suspended in 0.5% methylcellulose and administered (a) intraperitioneally (ip) to adult male CF no. 1 albino mice (18-25 g) in volume of 0.01 mL/g body weight and (b) orally to adult male Sprague-Dawley albino rats (100-150 g) in volume of 0.04 mL per 10 g of body weight.
as §3

As to `NS(=O)(=O)c1ccc(NC(=O)Cc2ccccc2)cc1` [Compound 30, 2-Phenyl-N-(4-sulfamoyl-phenyl)-acetamide], the “MES (number of animals protected/number of animals tested)” value was 0/1 in data set [1] (setting [7]); 0/1 in data set [1] (setting [8]); 3/3 in data set [1] (setting [9]); 3/3 in data set [1] (setting [10]); 1/1 in data set [1] (setting [11]); 1/1 in data set [1] (setting [12]). For the same molecule, the “scMet (number of animals protected/number of animals tested)” value in data set [2] (setting [7]), in data set [2] (setting [8]), in data set [2] (setting [9]), in data set [2] (setting [10]), in data set [2] (setting [11]) and in data set [2] (setting [12]) was 0/1 0/1 0/1 each time. Also, the “PI, protective index (PI = TD50/ED50) in the MES test” value in data set [3] is >31.0. Further, the “PI, protective index (PI = TD50/ED50) in the scMet test” value in data set [4] was >2. The TD50 in the data set “in vivo” is > 500 mg/kg. For the same molecule, the ED50 in data set [5] was > 250 mg/kg; in data set [6], 16.1 mg/kg. In addition, the responders at 30 mg/kg in data set [6] (0.5 h) is 0%; in data set [6] (1 h), 100%; in data set [6] (2 h) it was 75%; in data set [6] (4 h), 100%; in data set [6] ([…]) it was 0%.
For the molecule `CCC(CC)C(=O)NCc1ccc(S(N)(=O)=O)cc1` [Compound 28, 2-Ethyl-N-(4-sulfamoyl-benzyl)-butyramide], the melting point was 148 to 150 °C. Further, in data set [1] (setting [7]), the “MES (number of animals protected/number of animals tested)” value is reported as 0/1. For the same molecule, the “MES (number of animals protected/number of animals tested)” value in data set [1] (setting [8]) is given as 0/1. Besides, in data set [1] (setting [9]), the “MES (number of animals protected/number of animals tested)” value is 3/3. Further, the “MES (number of animals protected/number of animals tested)” value in data set [1] (setting [10]) is 1/3. In addition, the “MES (number of animals protected/number of animals tested)” value in data set [1] (setting [11]) is given as 1/1. The “MES (number of animals protected/number of animals tested)” value in data set [1] (setting [12]) is 1/1. Besides, in data set [2] (setting [7]), the “scMet (number of animals protected/number of animals tested)” value is given as 0/1 0/1 0/1. In data set [2] (setting [8]), the “scMet (number of animals protected/number of animals tested)” value is reported as 0/1 0/1 0/1. The “scMet (number of animals protected/number of animals tested)” value in data set [2] (setting [9]) was 0/1 0/1 0/1. The “scMet (number of animals protected/number of animals tested)” value in data set [2] (setting [10]) is reported as 0/1 0/1 0/1. Moreover, the “scMet (number of animals protected/number of animals tested)” value in data set [2] (setting [11]) is 0/1 0/1 0/1. Besides, in data set [2] (setting [12]), the “scMet (number of animals protected/number of animals tested)” value is on record as 0/1 0/1 0/1. Also, in data set [4], the “PI, protective index (PI = TD50/ED50) in the scMet test” value is on record as >2. The TD50 in the data set “in vivo” was > 500 mg/kg. Also, the ED50 in data set [5] is > 250 mg/kg. In data set [6] (0.5 h), the responders at 30 mg/kg was 25%. The responders at 30 mg/kg in data set [6] (1 h) was 50%. Moreover, the responders at 30 mg/kg in data set [6] (2 h) amounted to 0%. Further, the responders at 30 mg/kg in data set [6] (4 h) came out at 0%. Further, the responders at 30 mg/kg in data set [6] ([…]) was 25%. Also, the ED50 in data set [6] came out at 24.7 mg/kg.
With `CC(C)(C)C(=O)Nc1ccc(S(N)(=O)=O)cc1` [Compound 9, 2,2-Dimethyl-N-(4-sulfamoyl-phenyl)-propionamide], the melting point is 228 to 229 °C. The “MES (number of animals protected/number of animals tested)” value in data set [1] (setting [7]) is recorded as 0/1. The “MES (number of animals protected/number of animals tested)” value in data set [1] (setting [8]) is 0/1. In addition, the “MES (number of animals protected/number of animals tested)” value in data set [1] (setting [9]) was 1/3. Moreover, in data set [1] (setting [10]), the “MES (number of animals protected/number of animals tested)” value is recorded as 2/3. Moreover, the “MES (number of animals protected/number of animals tested)” value in data set [1] (setting [11]) is on record as 1/1. Further, the “MES (number of animals protected/number of animals tested)” value in data set [1] (setting [12]) is recorded as 1/1. For the same molecule, the “scMet (number of animals protected/number of animals tested)” value in data set [2] (setting [7]) was 0/1 0/1 0/1. Further, the “scMet (number of animals protected/number of animals tested)” value in data set [2] (setting [8]) is reported as 0/1 0/1 0/1. In addition, the “scMet (number of animals protected/number of animals tested)” value in data set [2] (setting [9]) was 0/1 0/1 0/1. The “scMet (number of animals protected/number of animals tested)” value in data set [2] (setting [10]) is 0/1 0/1 0/1. Further, the “scMet (number of animals protected/number of animals tested)” value in data set [2] (setting [11]) is 0/1 0/1 0/1. In addition, the “scMet (number of animals protected/number of animals tested)” value in data set [2] (setting [12]) is listed as 0/1 0/1 0/1. Besides, the “PI, protective index (PI = TD50/ED50) in the MES test” value in data set [3] was >11.8. Moreover, the TD50 in the data set “in vivo” was > 500 mg/kg. For the same molecule, in data set [6] (0.5 h), the responders at 30 mg/kg is 0%. The responders at 30 mg/kg in data set [6] (1 h) is 75%. Further, the responders at 30 mg/kg in data set [6] (2 h) was 50%. Also, the responders at 30 mg/kg in data set [6] (4 h) is 100%. Also, the responders at 30 mg/kg in data set [6] ([…]) was found to be 0%. In addition, in data set [6], the ED50 is 42 mg/kg and the “MES ED50” value is listed as 42.2 (22.9-86.4) mg/kg.
In the case of `CCC(CC)C(=O)Nc1ccc(S(N)(=O)=O)cc1` [Compound 11, 2-Ethyl-N-(4-sulfamoyl-phenyl)-butyramide], the “MES (number of animals protected/number of animals tested)” value is 1/1 in data set [1] (setting [7]); 1/1 in data set [1] (setting [8]); 3/3 in data set [1] (setting [9]); 3/3 in data set [1] (setting [10]); 1/1 in data set [1] (setting [11]); 1/1 in data set [1] (setting [12]). The “scMet (number of animals protected/number of animals tested)” value in data set [2] (setting [7]), in data set [2] (setting [8]), in data set [2] (setting [9]), in data set [2] (setting [10]), in data set [2] (setting [11]) and in data set [2] (setting [12]) was 0/1 0/1 0/1 each time. Further, in data set [4] (doses up to 250 mg/kg), the “activity in the scMet test” value was “inactive”. Besides, the “PI, protective index (PI = TD50/ED50) in the scMet test” value in data set [4] is >2. Further, the TD50 in “in vivo” was > 500 mg/kg. Besides, the ED50 was > 250 mg/kg in data set [5] and ~10 mg/kg in data set [6]. For the same molecule, the responders at 30 mg/kg is 75% in data set [6] (0.5 h); 100% in data set [6] (1 h); 100% in data set [6] (2 h); 100% in data set [6] (4 h); 25% in data set [6] ([…]). In addition, the “anticonvulsant potency relative to valproic acid (times greater)” value in data set [6] (rat-MES, versus VPA) was found to be 49 times. Also, in data set [6] (rat-MES, versus VPA), the “rat-MES PI relative to VPA (times higher)” value was “about 31 times”. Also, in data set [6], the “MES ED50” value is given as 9.9 (6.5-14.5) mg/kg.
As to `CCCC(C(=O)Nc1ccc(S(N)(=O)=O)cc1)C(C)CC` (stereo not shown) [Compound 21, 2-propyl-3-Methyl-N-(4-sulfamoyl-phenyl)-pentanamide], the melting point is 223 to 226 °C. Besides, in data set [1] (setting [7]), the “MES (number of animals protected/number of animals tested)” value was 0/1. Besides, the “MES (number of animals protected/number of animals tested)” value in data set [1] (setting [8]) was 0/1. The “MES (number of animals protected/number of animals tested)” value in data set [1] (setting [9]) is reported as 1/3. For the same molecule, in data set [1] (setting [10]), the “MES (number of animals protected/number of animals tested)” value is listed as 2/3. The “MES (number of animals protected/number of animals tested)” value in data set [1] (setting [11]) was 1/1. In data set [1] (setting [12]), the “MES (number of animals protected/number of animals tested)” value is 1/1. In data set [2] (setting [7]), the “scMet (number of animals protected/number of animals tested)” value is 0/1 0/1 0/1. For the same molecule, in data set [2] (setting [8]), the “scMet (number of animals protected/number of animals tested)” value was 0/1 0/1 0/1. For the same molecule, the “scMet (number of animals protected/number of animals tested)” value in data set [2] (setting [9]) is reported as 0/1 0/1 0/1. The “scMet (number of animals protected/number of animals tested)” value in data set [2] (setting [10]) is reported as 0/1 0/1 0/1. In data set [2] (setting [11]), the “scMet (number of animals protected/number of animals tested)” value is given as 0/1 0/1 0/1. The “scMet (number of animals protected/number of animals tested)” value in data set [2] (setting [12]) was 0/1 0/1 0/1. Further, in data set [6] (0.5 h), the responders at 30 mg/kg was 25%. Further, the responders at 30 mg/kg in data set [6] (1 h) was 25%. Besides, the responders at 30 mg/kg in data set [6] (2 h) is 50%. In addition, the responders at 30 mg/kg in data set [6] (4 h) was 25%. Further, the responders at 30 mg/kg in data set [6] ([…]) came to 0%.
